Measured values reported in article PMC12901191, “Detection and pharmacokinetics of licochalcone A in brains of neuroinflammatory mouse model” (Naunyn-Schmiedeberg's Archives of Pharmacology, 2025).
Where two headings read alike, the source gives them in different places.

Legend:
[1] = test system: LPS-neuroinflammatory mouse model; test: Novel object recognition (NOR) test in LPS-neuroinflammatory mouse model; assay type: in vivo, Swiss albino mice; conditions: drug control group (saline + LCA 20 mg/kg ip) vs control group
From the text: (§1) A neuroinflammatory mouse model induced by LPS was developed as described before by Lee et al. ([2008a]). This neuroinflammatory model was well-characterized previously by our research group, showing memory impairment, neuroinflammation, and neurodegenerative changes in the cortex and hippocampus (Zakaria et al. [2016]; Abdel-Kader et al. [2021]; Samir et al. [2023]; Wagdy et al. [2023]).
(§2) Mice were divided randomly into four groups as follows: (i) control group, mice received vehicle injections (saline followed by DMSO/corn-oil vehicle); (ii) LPS onlygroup, LPS followed by the DMSO/corn-oil vehicle; (iii) treatment group, LPS followed by LCA; and (iv) drug control group, saline followed by LCA. […] This timing also avoids potential direct pharmacological interaction and is consistent with previous post-LPS treatment protocols (Zakaria et al. [2016]; Badshah et al. [2016]).
(§3) The behavioral assessment was performed 24 h after the final dose (day 8), after which all mice were sacrificed, and their brains were collected for subsequent bioanalysis (Fig. 1).
A total number of 40 mice were randomly assigned into four groups (n = 10 per group) before performing the behavioral experiments and kept blinded throughout the study until all data had been collected. The experimental unit in these assays was a single animal, and the primary outcomes were memory and cognitive functions. […]

[2] = test system: LPS-neuroinflammatory mouse model; test: Y-maze spontaneous alternation test in LPS-neuroinflammatory mouse model; assay type: in vivo, Swiss albino mice
Method: as §1, with “[2023]). […]” for “[2023]).”
The short-term spatial working memory and exploratory activity of the mice were assessed using the Y-maze spontaneous alteration test, according to the working protocol of Arai et al. ([2001]). […] The sequences of animal’s entries in the arms were recorded. For an entry to be counted, the four paws and the tail of the animal have to be inside the arm. […] Working memory was calculated based on the number of spontaneous alternations, which is defined as successive entries into three distinct arms consecutively without any repeated entry to any of the arms. The results were expressed as “spontaneous alternation percentage” using the equation: % spontaneous alternation = [Spontaneous alternations/(Total number of entries − 2)] × 100.

[3] = Permeability of LCA across BBB: GC-MS/MS detection and quantification in brain tissue after the treatment regimen; assay type: in vivo, Swiss albino mice; conditions: treated (LPS + LCA) and drug control groups; peak at RT 11.22 min
From the text: as §2, §3
(§4) Mice were sacrificed by cervical dislocation, and their brains were collected and separated from the cerebellum. The collected brains were washed with ice-cold Tris buffer (5 mM, pH 7.4) and then homogenized with 1 mL of the Tris buffer/100 mg brain using the 5-mL Dounce homogenizer. The brain homogenates were stored at − 80 °C till analysis. […] The homogenization included the entire brain components, allowing for a comprehensive analysis of LCA in the samples.
Brain homogenates were removed from the − 80 °C freezer and allowed to come to room temperature. […]
For both qualitative and quantitative analysis on mice brain samples, the MSD was operated in time-segmented MRM mode for the selected transition ions.

[4] = Pharmacokinetic study of LCA in mice brain tissues (non-compartmental analysis); assay type: in vivo, Swiss albino mice
Method: as §4
Brain homogenates were removed from the − 80 °C freezer and allowed to come to room temperature. Brain matrix extraction was performed as described before (Paulke et al. [2006]) with slight modifications. Briefly, in tightly sealed polypropylene tubes, 300 µL brain homogenate was mixed with 300 µL methanol, 200 µL tert-butyl hydroquinone (TBHQ) solution (5 mg/mL), and 200 µL HCl (1 M). The reaction mixture was vortexed for 1 min and inserted into a heat block at 90 °C for 2 h. The reaction tubes were then centrifuged at 3700 × g for 10 min, and the supernatant was collected in micro-centrifuge tubes and transferred for derivatization.
The chosen method for derivatization in this study involves silylation, utilizing the N, O-Bis(trimethylsilyl) trifluoroacetamide (BSTFA) as a silylating agent. The derivatization reaction is employed to produce silyl derivatives of the analyte, which are more volatile and more thermally stable. The reaction replaces active hydrogens with trimethylsilyl groups (TMS) through SN2 nucleophilic attack (Halket and Zaikin [2003]). Extracted samples or reference standards were first placed in a vacuum concentrator for 2 h before performing the derivatization reaction to ensure complete dryness. Dried sample residues were derivatized by adding 150 µL of the mixture of BSTFA and pyridine in a (4:1) ratio into the samples’ tubes. The derivatization reaction was performed at 60 °C for 1 h (Fig. 2). The tubes were centrifuged at 21,460 × g for 1 min and transferred to glass vials suitable for GC–MS/MS analysis.
For pharmacokinetic analysis, 30 adult male Swiss albino mice were randomly divided into six groups (n = 5 for each group), according to sample collection times. […] Mice were sacrificed, and brain tissues were collected after 0, 2, 4, 6, 8, and 24 h post-dosing and were then kept at − 80 °C before sample treatment. Collected brain samples were then extracted and derivatized as described previously and then further analyzed using the GC–MS/MS in MRM mode using the established MRM transitions. Pharmacokinetic parameters were determined by non-compartmental analysis using PK solutions software, version 2.0 (Summit Research Services).

[5] = parameters: method as in Weng et al. [2019]; conditions: ref Weng et al. [2019], cited from earlier work
[6] = male, Swiss albino, mouse, brain, ip, 20 mg/kg
[7] = single ip 20 mg/kg LCA after 7 days LPS, brain tissue, mean ± SD, n = 5
[8] = intravenous 5 mg/kg single dose

C=CC(C)(C)c1cc(/C=C/C(=O)c2ccc(O)cc2)c(OC)cc1O [LCA, (2E)−3-[4-Hydroxy-2-methoxy-5-(2-methylbut-3-en-2-yl)phenyl]−1-(4-hydroxyphenyl)prop-2-en-1-one]
non-spatial memory (NOR), LCA alone vs control [1]: did not show alteration
explorative behavior / spatial short-term memory (spontaneous alternation %, Y-maze) ([2]; LPS + LCA vs LPS group, LCA 20 mg/kg ip days 4-7, LPS 250 µg/kg ip days 1-7, tested day 8, p < 0.01): restored the explorative behavior
spatial short-term memory (Y-maze), LCA alone vs control ([2]; drug control group (saline + LCA 20 mg/kg ip) vs control group): did not show alteration
detection of LCA in brain (passage of BBB) [3]: presence of LCA peak
Tmax [4, 6]: 4 h
half-life [4, 6]: 17.1 ± 5.98 h
MRT last ([4]; male, Swiss albino, mouse, brain, ip, 20 mg/kg, read-out: MRT0-t): 10.5 ± 0.69 h
Cl/F [4, 7]: 17.90 ± 5.33 (mg/kg)/h
Vz/F [4, 7]: 529.74 ± 139.18 mg/kg
concentration in brain tissue until 8 h post-injection ([4]; single ip 20 mg/kg LCA after 7 days LPS, up to 8 h post-injection): above 15 µg/mg
Cmax (plasma) [5, 8]: 3173.5 ± 483.0 ng/mL
Tmax (plasma) [5, 8]: 0.0833 h
Cmax (plasma) ([5]; oral 15 mg/kg single dose): 60.7 ± 13.9 ng/mL
Tmax (plasma) ([5]; oral 15 mg/kg single dose): 0.5 h
